Results: US5157052A, “Method for inhibiting IgE production” (priority 1990, dated 1992)

Test system: IgE
Experiment: Serum IgE response induced by FF1-4D5 + H∂A1 anti-IgD antibodies (ELISA, Assay A / Assay F)
Type: in vivo, mouse (Balb/c female)
Settings: for IgE ± SD: Table 9, 20 μg IP days 3 and 4
Procedure: Mouse hybridoma cells expressing either FF1-4D5 antibody or H∂A1 antibody are thawed, established in culture, and incubated in mice as ascite tumors. FF1-4D5 antibody is a mouse IgG2a monoclonal antibody of the b allotype that binds the Fd fragment of the ∂ chain of the a allotype IgD which activates β cells through antigen internalization and processing, promoting cognate interactions with antigen-specific T cells (D. K. Goroff et al., J. Immunol. 136: 2382 (1986)). H∂A1 antibody is a mouse IgG2b of the b allotype that binds the Fc fragment of the ∂ chain of the a allotype IgD which activates β cells through crosslinking IgD (I. M. Zitron and B. L. Clevinger, J. Exp. Med. 152: 1135 (1980)). Each antibody is purified from their respective ascites tumor fluid. […] Serum from the injected mice is recovered and the mean concentration of IgE determined.
Serum levels of IgE are determined and IgE levels are shown to be inhibited in a dose dependent manner.
ELISA (enzyme linked immunosorbant assay) measurements of IgE are as follows. About 5 μg of B1E3 antibody in 100 μl borate buffered saline (pH8.5) is added to wells of a NuncImmulon II 96 well plate (DiRuscio & Assoc., St. Louis, Mo.) at 37° C. for 90 minutes. The non-bound antibody is removed by flicking the plate. Unreacted sites on the plastic plate are blocked by adding about 200 μl of a 2% solution of newborn bovine serum (NBS) in PBS at 37° C. for 60 minutes. The standard IgE (or an unknown murine serum sample) is diluted to between about 4 ng/ml-256 ng/ml in Hanks-HS (20 mM Hepes, 2% NBS in Hanks Balanced Salt Solution, Gibco, Grand Island, N.Y.) or to 1/200 to 1/1000 in Hanks-HS respectively. 100 μl of standard (or unknown dilutions) are added in triplicate to the wells of the plate and allowed to absorb to B1E3 antibody at about 37° C. for 2-4 hours. The solution is removed by flicking the plate and each well is washed with about 0.5 ml 0.05% Tween 20-PBS 5 times. About 100 μl of biotinylated R1E4, called the primary antibody, diluted to 200 ng/ml is added to all wells and incubated at about 4° C. overnight. The solution is removed by flicking the plate and washed 5 times as described above. The developing reagent (Avidin and biotin-horse radish peroxidase) is incubated in 2% NBS in PBS at ambient temperature for 30 minutes, according to manufacturer's specifications (Vector Laboratories, Burlingame, Calif.). About 100 μl of developing reagent is added to each well and incubated at ambient temperature for 30 minutes. Colorimetric substrate for the developing reagent (ABTS peroxidase substrate system, KPL, Gaithersburg, Md.) is prepared by mixing equal volumes of solutions A and B and incubating at ambient temperature for 60 minutes. The developing reagent solution is removed by flicking the plate and washed 5 times as described above. About 100 μl of the mixture of substrates is added to each well and incubated at ambient temperature for 60 minutes. The optical density of each well is determined on a BioTek ELISA reader (Biotek Instruments, Inc., Burlington, Vermont) and the absorbance data transferred electronically to a DEC VAX mainframe computer. A standard curve is fitted to the IgE standard optical densities using straight line, linear regression statistical fits. IgE in the unknown serum samples is determined by comparing the optical density of the unknown to the standard curve and multiplying that number by the dilution of serum used in the assay.
Stimulation of a transient serum IgE response in mouse with two monoclonal antibodies directed against IgD is carried out as follows.
Mouse hybridoma cells expressing either FF1-4D5 antibody or H∂Al antibody are thawed, established in culture, and incubated in CB6 F1 female mice as an ascites tumor and each immunoglobulin is purified from the ascites fluid as described above. […]

Structure (SMILES): CCCCC(C)(O)C/C=C/[C@H]1[C@H](O)CC(=O)[C@@H]1C/C=C\CCCC(=O)OC (mixture of isomers) [(±) methyl 11α,16-dihydroxy-16-methyl-9-oxoprosta-5Z,13E-dien-1-oate]
- Serum IgE ± SD (0.5 μg IP 4x daily days 3 and 4, day 7): 7813 ± 588 ng/mL
- Serum IgE ± SD (0.5 μg IP 4x daily days 3 and 4, day 8): 5699 ± 322 ng/mL
- Serum IgE ± SD (0.5 μg IP 4x daily days 3 and 4, day 9): 6097 ± 249 ng/mL
- Serum IgE ± SD (0.5 μg IP 4x daily days 3 and 4, day 11): 2049 ± 1201 ng/mL
- Serum IgE ± SD (0.5 μg IP 4x daily days 3 and 4, day -1 baseline before treatment): 839 ± 44 ng/mL
- Serum IgE ± SD (1.0 μg IP 3x daily days 3 and 4, day 7 (control 8850)): 4974 ± 1232 ng/mL
- Serum IgE ± SD (1.0 μg IP 3x daily days 3 and 4, day 8 (control 7557)): 4595 ± 663 ng/mL
- Serum IgE ± SD (1.0 μg IP 3x daily days 3 and 4, day 9 (control 6458)): 4602 ± 771 ng/mL
- Serum IgE ± SD (1.0 μg IP 3x daily days 3 and 4, day 11 (control 1466)): 1326 ± 241 ng/mL
- Serum IgE ± SD (1.0 μg IP 3x daily days 3 and 4, day -1 baseline before treatment): 808 ± 17 ng/mL
- Serum IgE ± SD (1.0 μg IP 4x daily days 3 and 4, day 7): 5549 ± 1044 ng/mL
- Serum IgE ± SD (1.0 μg IP 4x daily days 3 and 4, day 8): 3051 ± 475 ng/mL
- Serum IgE ± SD (1.0 μg IP 4x daily days 3 and 4, day 9): 4383 ± 832 ng/mL
- Serum IgE ± SD (1.0 μg IP 4x daily days 3 and 4, day 11): 1506 ± 794 ng/mL
- Serum IgE ± SD (1.0 μg IP 4x daily days 3 and 4, day -1 baseline before treatment): 1197 ± 272 ng/mL
- Serum IgE ± SD (2.0 μg IP 3x daily days 3 and 4, day 7): 5598 ± 1875 ng/mL
- Serum IgE ± SD (2.0 μg IP 3x daily days 3 and 4, day 8): 3057 ± 331 ng/mL
- Serum IgE ± SD (2.0 μg IP 3x daily days 3 and 4, day 9): 3644 ± 1179 ng/mL
- Serum IgE ± SD (2.0 μg IP 3x daily days 3 and 4, day 11): 1279 ± 377 ng/mL
- Serum IgE ± SD (2.0 μg IP 3x daily days 3 and 4, day -1 baseline before treatment): 800 ± 10 ng/mL
- Serum IgE ± SD (2.0 μg IP 4x daily days 3 and 4, day 7): 5483 ± 717 ng/mL
- Serum IgE ± SD (2.0 μg IP 4x daily days 3 and 4, day 8): 3236 ± 599 ng/mL
- Mean IgE ± SD (2 μg IP 4x daily days 3 and 4, day 8 (controls 14083-15890)): 5401 ± 883 ng/mL
- Serum IgE ± SD (2.0 μg IP 4x daily days 3 and 4, day 9): 3987 ± 401 ng/mL
- Serum IgE ± SD (2.0 μg IP 4x daily days 3 and 4, day 11): 1925 ± 410 ng/mL
- Mean IgE ± SD (2 μg IP 4x daily days 3 and 4, day -1 baseline before treatment): 1294 ± 232 ng/mL
- Serum IgE ± SD (2.0 μg IP 4x daily days 3 and 4, day -1 baseline before treatment): 1019 ± 206 ng/mL
- reduction in IgE production (2 μg IP, day 8): about 62%
- IgE inhibition regardless of day of administration (5 μg IP): regardless on what day the prostaglandin was administered IgE production (synthesis) was inhibited
- duration of IgE suppression (5 μg IP): IgE production was still suppressed even after 11 days
- optimal day of administration for inhibition of IgE (5 μg IP): IgE production is inhibited optimally when administered on day 3 and 4
- Mean IgE ± SD (5 μg IP 4x daily days 3 and 4, day 8 (controls 14083-15890)): 5076 ± 378 ng/mL
- Mean IgE ± SD (5 μg IP 4x daily days 3 and 4, day -1 baseline before treatment): 1292 ± 185 ng/mL
- Serum IgE ± SD (5 μg IP on days 1,2, day 8 (control 19549)): 9753 ± 4566 ng/mL
- Serum IgE ± SD (5 μg IP on days 1,2, day 9 (control 17498)): 10678 ± 8402 ng/mL
- Serum IgE ± SD (5 μg IP on days 1,2, day 11 (control 5317)): 2355 ± 709 ng/mL
- Serum IgE ± SD (5 μg IP on days 1,2, day -1 baseline before treatment): 1344 ± 135 ng/mL
- Serum IgE ± SD (5 μg IP on days 2,3, day 8 (control 19549)): 6233 ± 1948 ng/mL
- Serum IgE ± SD (5 μg IP on days 2,3, day 9 (control 17498)): 5328 ± 1811 ng/mL
- Serum IgE ± SD (5 μg IP on days 2,3, day 11 (control 5317)): 2139 ± 396 ng/mL
- Serum IgE ± SD (5 μg IP on days 2,3, day -1 baseline before treatment): 1293 ± 88 ng/mL
- Serum IgE ± SD (5 μg IP on days 3,4, day 8 (control 19549)): 4683 ± 1247 ng/mL
- Serum IgE ± SD (5 μg IP on days 3,4, day 9 (control 17498)): 4505 ± 1155 ng/mL
- Serum IgE ± SD (5 μg IP on days 3,4, day 11 (control 5317)): 1865 ± 361 ng/mL
- Serum IgE ± SD (5 μg IP on days 3,4, day -1 baseline before treatment): 1517 ± 166 ng/mL
- Serum IgE ± SD (5 μg IP on days 4,5, day 8 (control 19549)): 7969 ± 1821 ng/mL
- Serum IgE ± SD (5 μg IP on days 4,5, day 9 (control 17498)): 7145 ± 1763 ng/mL
- Serum IgE ± SD (5 μg IP on days 4,5, day 11 (control 5317)): 2316 ± 496 ng/mL
- Serum IgE ± SD (5 μg IP on days 4,5, day -1 baseline before treatment): 1644 ± 560 ng/mL
- Serum IgE ± SD (10.0 μg IP 3x daily days 3 and 4, day 7): 3223 ± 1717 ng/mL
- Serum IgE ± SD (10.0 μg IP 3x daily days 3 and 4, day 8): 1705 ± 859 ng/mL
- Serum IgE ± SD (10.0 μg IP 3x daily days 3 and 4, day 9): 1233 ± 601 ng/mL
- Serum IgE ± SD (10.0 μg IP 3x daily days 3 and 4, day 11): 1116 ± 276 ng/mL
- Serum IgE ± SD (10.0 μg IP 3x daily days 3 and 4, day -1 baseline before treatment): 849 ± 77 ng/mL
- Serum IgE ± SD (10.0 μg IP 4x daily days 3 and 4, day 7): 2092 ± 605 ng/mL
- Serum IgE ± SD (10.0 μg IP 4x daily days 3 and 4, day 8): 1884 ± 598 ng/mL
- Mean IgE ± SD (10 μg IP 4x daily days 3 and 4, day 8 (controls 14083-15890)): 2661 ± 504 ng/mL
- Serum IgE ± SD (10.0 μg IP 4x daily days 3 and 4, day 9): 1991 ± 834 ng/mL
- Serum IgE ± SD (10.0 μg IP 4x daily days 3 and 4, day 11): 1429 ± 361 ng/mL
- Mean IgE ± SD (10 μg IP 4x daily days 3 and 4, day -1 baseline before treatment): 1382 ± 135 ng/mL
- Serum IgE ± SD (10.0 μg IP 4x daily days 3 and 4, day -1 baseline before treatment): 1040 ± 211 ng/mL
- Mean IgE ± SD (20 μg IP 4x daily days 3 and 4, day 8 (controls 14083-15890)): 1608 ± 272 ng/mL
- Mean IgE ± SD (20 μg IP 4x daily days 3 and 4, day -1 baseline before treatment): 1308 ± 204 ng/mL
- inhibition of de novo IgE synthesis in vivo (20 μg days 3 and 4): de nouo IgE synthesis is inhibited
- Serum IgE ± SD (40 μg IP 3x daily days 3 and 4, day 7): 998 ± 146 ng/mL
- Serum IgE ± SD (40 μg IP 3x daily days 3 and 4, day 8): 1214 ± 181 ng/mL
- Serum IgE ± SD (40 μg IP 3x daily days 3 and 4, day 9): 1119 ± 135 ng/mL
- Serum IgE ± SD (40 μg IP 3x daily days 3 and 4, day 11): 1110 ± 249 ng/mL
- Serum IgE ± SD (40 μg IP 3x daily days 3 and 4, day -1 baseline before treatment): 822 ± 39 ng/mL
- Serum IgE ± SD (40.0 μg IP 4x daily days 3 and 4, day 7): 1037 ± 237 ng/mL
- Serum IgE ± SD (40.0 μg IP 4x daily days 3 and 4, day 8): 1152 ± 388 ng/mL
- Mean IgE ± SD (40 μg IP 4x daily days 3 and 4, day 8 (controls 14083-15890)): 1217 ± 344 ng/mL
- Serum IgE ± SD (40.0 μg IP 4x daily days 3 and 4, day 9): 870 ± 83 ng/mL
- Serum IgE ± SD (40.0 μg IP 4x daily days 3 and 4, day 11): 1028 ± 302 ng/mL
- Mean IgE ± SD (40 μg IP 4x daily days 3 and 4, day -1 baseline before treatment): 1114 ± 324 ng/mL
- Serum IgE ± SD (40.0 μg IP 4x daily days 3 and 4, day -1 baseline before treatment): 929 ± 97 ng/mL
- inhibition of serum IgE synthesis (2-40 μg IP days 3 and 4): reduces IgE production in a dose dependent manner
- Mean IgE ± SD (Group D, unstimulated (PBS on day 0), 40 μg (text: 20 μg) IP days 3 and 4, day 8): 1026 ± 387 ng/mL
- Mean IgE ± SD (Group D, unstimulated (PBS on day 0), 40 μg (text: 20 μg) IP days 3 and 4, day -1 baseline before treatment): 1289 ± 10 ng/mL
- IgE inhibition, 3 vs 4 times a day (IP days 3 and 4): equally effective at inhibiting IgE production in a dose dependent manner whether administered 3 times a day or 4 times a day
- dosage at which maximum inhibition is obtained (IP days 3 and 4): 40.0 µg
- lowest dosage at which some inhibition is obtained (IP days 3 and 4): 1.0 µg
- IgE ± SD (day 8 (control 3539)): 1206 ± 119 ng/mL
- IgE ± SD (day -1 baseline before treatment): 1015 ± 70 ng/mL
